In patent US8796246B2, “9, 10-secopregnane derivative and pharmaceutical” (Nippon Shinyaku Co., Ltd., priority 2006, dated 2014):

Tests used:
[1] = system: human acute myelogenous leukemia cell line HL-60; assay: Ability to induce differentiation of HL-60 cells (oxygen radical production after phorbol ester, WST-1); assay type: cell-based; conditions: 72 hours incubation, then WST-1 and phorbol 12,13-didecanoate for 4 hours, absorbance at 450 nm
From the text: It is known that the human acute myelogenous leukemia cell line HL-60is differentiated into neutrophil-like cells by active vitamin D or the like. Thus, the cells after the differentiation begin to express a surface marker such as CD11and CD32and, at the same time, they produce an oxygen radical by stimulation with a phorbol ester or the like. In this test, the above-mentioned property was utilized. As an index of the ability to induce differentiation of the HL-60cells, the amount of the oxygen radical produced by stimulation with a phorbol ester was measured, and the compounds of the invention mentioned in Examples were compared with maxacalcitol with respect to the vitamin D3activity thereof. In use of commercial reagents and kits, if any, the indications attached thereto were referred to.
HL-60cells (supplied from ATCC) were seeded on a 96-well plate at 5×10^3cells/100μL/well and a test compound in two-fold dilution series from 10^−7M was added to the second to the twelfth rows (maximum concentration: the second row). The first row was used for blank. After incubation for 72 hours under a moisturized condition in the presence of 5% CO2 at 37° C. using a CO2 incubator, 10 μL of PBS containing 50 mM WST-1 (manufactured by Takara Bio) and 10 μM phorbol 12,13-didecanoate (manufactured by SIGMA) were added to each well followed by further incubation for 4 hours. Absorbance (reference wavelength: […]) at […] of the WST-1 formazane dye generated by conversion from WST-1 by oxygen radical produced from the differentiated HL-60 cells was measured by a Benchmark microplate reader (manufactured by BioRad). An absorbance meter control software MPM3 (manufactured by BioRad) was used and, from a concentration-absorbance curve, the 50%-maximal effective concentration (hereinafter, referred to as “EC50”) of each was determined by a logistic curve regression.

[2] = Metabolic rate in human liver microsome; assay type: in vitro ADME; conditions: pooled human liver microsome 1 mg/mL protein, NADPH-regenerating system, 37° C., 2-60 minutes, HPLC
Experimental: The compounds of the invention mentioned in Examples and maxacalcitol were compared with each other with respect to the metabolic rate in human liver microsome.
As to the pooled human liver microsome (HHM-0323), those manufactured by Tissue Transformation Technologies were used. A 0.25 M potassium phosphate buffer (pH 7.4) (200 μL), 5 μL of a 250 μM solution of each compound to be tested in DMSO, 50 μL of an NADPH-regenerating system (where 20 mg of β-NADP^+, 70 mg of glucose-6-phosphate, 40 units of glucose-6-phosphate dehydrogenase and 20 mg of magnesium chloride were dissolved in 1 mL of distilled water) and 220 μL of distilled water were added to a microtube and the mixture was subjected to a preincubation for 5 minutes at 37° C. Reaction was started by an addition of 25 μL of human liver microsome (final concentration of protein: 1 mg/mL). Incubation was performed for 2, 10, 30 or 60 minutes and the reaction was stopped by an addition of 500 μL of acetonitrile. After centrifugation at 13,000 rpm for 5 minutes, each test compound in the supernatant (25 μL) was measured by HPLC under the following conditions.
Inertsil ODS-3 (4.6×150 mm; GL Science) was used as a column. With regard to the mobile phase, a solution A (acetonitrile/0.1% aqueous solution of ammonium acetate=10/90) and a solution B (acetonitrile/0.1% aqueous solution of ammonium acetate=90/10) were used under the linear gradient conditions mentioned in Tables 5 to 7. The column temperature, the flow rate and the wavelength for detection were set at 40° C., 1.0 mL/min. and UV 250 or 270 nm, respectively.
The compound mentioned in Example 38 was analyzed under the condition shown in Table 6; the compounds mentioned in Examples 55, 56, 68, 69, 72 and 73 were under the condition shown in Table 7; and the other compounds were under the condition shown in Table 5.
The compounds described in Examples 40, 43 to 48, 50, 55, 56, 58, 60, 61, 63 and 65 to 73 were analyzed under the condition of UV 250 nm; and the other compounds were under the condition of UV 270 nm.
From the HPLC test results as above, the metabolic rate of the test compound was calculated.

Row | EC50 [1] [nM] | Metabolic Rate [2] [pmol/min/mg] | Compound
1 | 0.82 | 43 | C=C1C(=CC=C2CCCC3(C)C2CCC3C(C)OC(=O)CCC(C)(O)C(F)(F)F)CC(O)CC1O (single isomer, unassigned) [Compound of Example 35, (1S,3R,20S)-20-[(4R) or (4S)-5,5,5-trifluoro-4-hydroxy-4-methylpentanoyloxy]-9,10-secopregna-5Z,7E,10(19)-triene-1,3-diol]
2 | 1.1 | 40 | C=C1C(=CC=C2CCCC3(C)C(C(C)OC(=O)CCC(C)(O)C(F)(F)F)=CCC23)CC(O)CC1O (single isomer, unassigned) [Compound of Example 71, (1S,3R,20S)-20-[(4S) or (4R)-5,5,5-trifluoro-4-hydroxy-4-methylpentanoyloxy]-9,10-secopregna-5Z,7E,10(19),16-tetraene-1,3-diol]
3 | 4.5 | 22 | C=C1C(=CC=C2CCCC3(C)C2CCC3C(C)OC(=O)CCCC(C)(C)O)CC(O)CC1O [Compound of Example 3, (1S,3R,20S)-20-(5-hydroxy-5-methylhexanoyloxy)-9,10-secopregna-5Z,7E,10(19)-triene-1,3-diol]
4 | 0.31 | – | C=C1C(=CC=C2CCCC3(C)C2CCC3C(C)OC(=O)CC(C)(O)C(F)(F)F)CC(O)CC1O [Compound of Example 4, (1S,3R,20S)-20-(4,4,4-trifluoro-3-hydroxy-3-methylbutanoyloxy)-9,10-secopregna-5Z,7E,10(19)-triene-1,3-diol]
5 | 0.86 | – | C=C1C(=CC=C2CCCC3(C)C2CCC3C(C)OC(=O)CC(O)C(C)C)CC(O)CC1O [Compound of Example 5, (1S,3R,20S)-20-(3-hydroxy-4-methylpentanoyloxy)-9,10-secopregna-5Z,7E,10(19)-triene-1,3-diol]
6 | 0.38 | – | C=C1C(=CC=C2CCCC3(C)C2CCC3C(C)OC(=O)CC(O)(C(F)(F)F)C(F)(F)F)CC(O)CC1O [Compound of Example 7, (1S,3R,20S)-20-[4,4,4-trifluoro-3-hydroxy-3-(trifluoromethyl)butanoyloxy]-9,10-secopregna-5Z,7E,10(19)-triene-1,3-diol]
7 | 3.4 | 38 | C=C1C(=CC=C2CCCC3(C)C2CCC3C(C)OC(=O)C=CC(C)(C)O)CC(O)CC1O [Compound of Example 8, (1S,3R,20S)-20-[(2E)-4-hydroxy-4-methylpent-2-enoyloxy]-9,10-secopregna-5Z,7E,10(19)-triene-1,3-diol]
8 | 0.99 | 58 | C=C1C(=CC=C2CCCC3(C)C2CCC3C(C)OC(=O)C=CC(O)(CC)CC)CC(O)CC1O [Compound of Example 10, (1S,3R,20S)-20-[(2E)-4-ethyl-4-hydroxyhex-2-enoyloxy]-9,10-secopregna-5Z,7E,10(19)-triene-1,3-diol]
9 | 1.5 | – | C=C1C(=CC=C2CCCC3(C)C2CCC3C(C)OC(=O)CC(O)(CC)CC)CC(O)CC1O [Compound of Example 12, (1S,3R,20S)-20-(3-ethyl-3-hydroxypentanoyloxy)-9,10-secopregna-5Z,7E,10(19)-triene-1,3-diol]
10 | 0.53 | 38 | C=C1C(=CC=C2CCCC3(C)C2CCC3C(C)OC(=O)CCC(O)(CC)CC)CC(O)CC1O [Compound of Example 13, (1S,3R,20S)-20-(4-ethyl-4-hydroxyhexanoyloxy)-9,10-secopregna-5Z,7E,10(19)-triene-1,3-diol]
11 | 2.4 | – | C=C1C(=CC=C2CCCC3(C)C2CCC3C(C)OC(=O)CN(C)CC(C)(C)O)CC(O)CC1O [Compound of Example 19, (1S,3R,20S)-20-[N-(2-hydroxy-2-methylpropyl)-N-methyl-2-aminoacetyloxy]-9,10-secopregna-5Z,7E,10(19)-triene-1,3-diol]
12 | 1.4 | 39 | C=C1C(=CC=C2CCCC3(C)C2CCC3C(C)OC(=O)CCC2(O)CCCC2)CC(O)CC1O [Compound of Example 20, (1S,3R,20S)-20-[3-(1-hydroxycyclopentyl)propanoyloxy]-9,10-secopregna-5Z,7E,10(19)-triene-1,3-diol]
13 | 4.1 | – | C=C1C(=CC=C2CCCC3(C)C2CCC3C(C)OC(=O)CC(=O)C(C)(C)O)CC(O)CC1O [Compound of Example 27, (1S,3R,20S)-20-(4-hydroxy-4-methyl-3-oxo-pentanoyloxy)-9,10-secopregna-5Z,7E,10(19)-triene-1,3-diol]
14 | 1.7 | – | C=C1C(=CC=C2CCCC3(C)C2CCC3C(C)OC(=O)CC(=O)C(O)(CC)CC)CC(O)CC1O [Compound of Example 28, (1S,3R,20S)-20-(4-ethyl-4-hydroxy-3-oxo-hexanoyloxy)-9,10-secopregna-5Z,7E,10(19)-triene-1,3-diol]
15 | 4.2 | 36 | C=C1C(=CC=C2CCCC3(C)C2CCC3C(C)OC(=O)CCCC(O)(CC)CC)CC(O)CC1O [Compound of Example 34, (1S,3R,20S)-20-(5-hydroxy-5-ethylheptanoyloxy)-9,10-secopregna-5Z,7E,10(19)-triene-1,3-diol]
16 | 1.1 | 36 | C=C1C(=CC=C2CCCC3(C)C2CCC3C(C)OC(=O)CCCC(C)(O)C(F)(F)F)CC(O)CC1O [Compound of Example 37, (1S,3R,20S)-20-(6,6,6-trifluoro-5-hydroxy-5-methylhexanoyloxy)-9,10-secopregna-5Z,7E,10(19)-triene-1,3-diol]
17 | 2.3 | 33 | C=C1C(=CC=C2CCCC3(C)C2CCC3C(C)OC(=O)CC(=O)C(C)(O)C(F)(F)F)CC(O)CC1O [Compound of Example 38, (1S,3R,20S)-20-(5,5,5-trifluoro-4-hydroxy-4-methyl-3-oxopentanoyloxy)-9,10-secopregna-5Z,7E,10(19)-triene-1,3-diol]
18 | 1.4 | 26 | C=C1C(=CC=C2CCCC3(C)C(C(C)OC(=O)CCC(C)(C)O)=CCC23)CC(O)CC1O [Compound of Example 39, (1S,3R,20S)-20-(4-hydroxy-4-methylpentanoyloxy)-9,10-secopregna-5Z,7E,10(19),16-tetraene-1,3-diol]
19 | 1.6 | 65 | CC(OC(=O)CCC(C)(C)O)C1CCC2C(=CC=C3CC(O)CC(O)C3)CCCC21C [Compound of Example 40, (1R,3R,20S)-19-nor-20-(4-hydroxy-4-methylpentanoyloxy)-9,10-secopregna-5Z,7E-diene-1,3-diol]
20 | 0.26 | 46 | C=C1C(O)CC(=CC=C2CCCC3(C)C2CCC3C(C)OC(=O)CCC(C)(C)O)CC1O [Compound of Example 41, (1R,3R,20S)-2-methylene-19-nor-20-(4-hydroxy-4-methylpentanoyloxy)-9,10-secopregna-5Z,7E-diene-1,3-diol]
21 | 0.53 | – | C=C1C(O)CC(=CC=C2CCCC3(C)C2CCC3C(C)OC(=O)CCCC(C)(C)O)CC1O [Compound of Example 57, (1R,3R,20S)-2-methylene-19-nor-20-(5-hydroxy-5-methylhexanoyloxy)-9,10-secopregna-5Z,7E-diene-1,3-diol]
22 | 2.2 | – | (1S,3R,20S)-20-(5-hydroxy-5-methylheptanoyloxy)-9,10-secopregna-5Z,7E,10(19)-triene-1,3-diol [Compound of Example 11]
